Experimental data from the NIST ThermoML archive (doi:10.1016/j.jct.2012.04.007).

Experiments:
[1] = 101.33 kPa, Liquid, Vibrating tube method
[2] = xn = mol fraction of the nth substance listed; details: 101 kPa, Liquid, Vibrating tube method

CC(=O)N(C)C [N,N-dimethylethanamide]
[1]
Details | mass density [kg/m3]
278.15 K | 954.78
288.15 K | 945.591
298.15 K | 936.382
308.15 K | 927.142
318.15 K | 917.863

CC(=O)N(C)C [N,N-dimethylethanamide] + O
mass density [kg/m3], [2]
Details | 278.15 K | 288.15 K | 298.15 K | 308.15 K | 318.15 K
x2 = 0.0002901 | 954.8 | 945.61 | 936.4 | 927.16 | 917.88
x2 = 0.001042 | 954.84 | 945.65 | 936.44 | 927.2 | 917.92
x2 = 0.001656 | 954.87 | 945.68 | 936.47 | 927.23 | 917.95
x2 = 0.002777 | 954.93 | 945.74 | 936.53 | 927.28 | 918
x2 = 0.003783 | 954.99 | 945.8 | 936.58 | 927.34 | 918.05
x2 = 0.004833 | 955.05 | 945.85 | 936.64 | 927.39 | 918.1
x2 = 0.005867 | 955.1 | 945.91 | 936.69 | 927.44 | 918.16
x2 = 0.007593 | 955.19 | 946 | 936.78 | 927.53 | 918.24
x2 = 0.008945 | 955.27 | 946.07 | 936.85 | 927.6 | 918.31
x2 = 0.01063 | 955.36 | 946.16 | 936.94 | 927.69 | 918.39
x2 = 0.01192 | 955.43 | 946.23 | 937.01 | 927.75 | 918.46

CN(C)C=O [dimethylformamide]
[1]
Details | mass density [kg/m3]
278.15 K | 962.901
288.15 K | 953.398
298.15 K | 943.869
308.15 K | 934.298
318.15 K | 924.683

CN(C)C=O [dimethylformamide] + O
mass density [kg/m3], [2]
Details | 278.15 K | 288.15 K | 298.15 K | 308.15 K | 318.15 K
x2 = 0.0002028 | 962.91 | 953.41 | 943.88 | 934.31 | 924.69
x2 = 0.0008875 | 962.94 | 953.44 | 943.91 | 934.34 | 924.72
x2 = 0.001707 | 962.98 | 953.48 | 943.95 | 934.38 | 924.76
x2 = 0.002654 | 963.03 | 953.53 | 944 | 934.42 | 924.8
x2 = 0.003456 | 963.06 | 953.57 | 944.03 | 934.46 | 924.84
x2 = 0.00465 | 963.12 | 953.62 | 944.09 | 934.52 | 924.89
x2 = 0.006106 | 963.19 | 953.69 | 944.16 | 934.58 | 924.96
x2 = 0.007804 | 963.28 | 953.77 | 944.24 | 934.66 | 925.04
x2 = 0.009189 | 963.34 | 953.84 | 944.3 | 934.73 | 925.1
x2 = 0.01051 | 963.4 | 953.9 | 944.37 | 934.79 | 925.16
x2 = 0.01182 | 963.47 | 953.97 | 944.43 | 934.85 | 925.22

[2H]O[2H] [water-d2] + CC(=O)N(C)C
mass density [kg/m3], [2]
Details | 278.15 K | 288.15 K | 298.15 K | 308.15 K | 318.15 K
x1 = 0.0002901 | 954.8 | 945.61 | 936.4 | 927.16 | 917.88
x1 = 0.0009284 | 954.85 | 945.66 | 936.45 | 927.21 | 917.93
x1 = 0.00199 | 954.93 | 945.74 | 936.53 | 927.29 | 918
x1 = 0.002684 | 954.98 | 945.79 | 936.58 | 927.34 | 918.05
x1 = 0.003434 | 955.05 | 945.85 | 936.64 | 927.39 | 918.11
x1 = 0.004789 | 955.15 | 945.96 | 936.74 | 927.49 | 918.21
x1 = 0.005915 | 955.24 | 946.05 | 936.83 | 927.58 | 918.28
x1 = 0.007384 | 955.36 | 946.16 | 936.94 | 927.69 | 918.39
x1 = 0.008715 | 955.46 | 946.26 | 937.04 | 927.79 | 918.49
x1 = 0.01024 | 955.59 | 946.38 | 937.16 | 927.9 | 918.6
x1 = 0.01198 | 955.72 | 946.52 | 937.29 | 928.03 | 918.73

[2H]O[2H] [water-d2] + CN(C)C=O
mass density [kg/m3], [2]
Details | 278.15 K | 288.15 K | 298.15 K | 308.15 K | 318.15 K
x1 = 0.0002028 | 962.92 | 953.41 | 943.88 | 934.31 | 924.7
x1 = 0.0009641 | 962.98 | 953.47 | 943.94 | 934.37 | 924.75
x1 = 0.00191 | 963.05 | 953.54 | 944.01 | 934.44 | 924.82
x1 = 0.002862 | 963.12 | 953.61 | 944.08 | 934.5 | 924.89
x1 = 0.003812 | 963.19 | 953.68 | 944.15 | 934.57 | 924.96
x1 = 0.004846 | 963.27 | 953.76 | 944.23 | 934.65 | 925.03
x1 = 0.005839 | 963.35 | 953.84 | 944.3 | 934.72 | 925.1
x1 = 0.006984 | 963.44 | 953.92 | 944.39 | 934.81 | 925.19
x1 = 0.008587 | 963.56 | 954.05 | 944.51 | 934.93 | 925.31
x1 = 0.01049 | 963.71 | 954.19 | 944.65 | 935.07 | 925.44
x1 = 0.012 | 963.83 | 954.31 | 944.77 | 935.18 | 925.55
